# Experimental data as given in patent US12612374B2, “Thiazole and diphenyl substituted sulfoxides for use in improving cognition functions and against addictions to substances” (Cogmotiv FlexCo, priority 2019, dated 2026).
# Target: T1, human NET (Homo sapiens, UniProt P23975)
# T1 construct: expressed in transfected cells
# Experiment: Monoamine transporter reuptake inhibition, [3H]-MPP+ uptake (NET)
# Format: cell-based
# Details: HEK 293 stably expressing human NET; 0.02 μM [3H]-MPP+, 3 min; means of at least three independent experiments; NS = Not specific in the used concentration range; read-out: NET IC50 ± SD
# T1 sequence (P23975 whole entry): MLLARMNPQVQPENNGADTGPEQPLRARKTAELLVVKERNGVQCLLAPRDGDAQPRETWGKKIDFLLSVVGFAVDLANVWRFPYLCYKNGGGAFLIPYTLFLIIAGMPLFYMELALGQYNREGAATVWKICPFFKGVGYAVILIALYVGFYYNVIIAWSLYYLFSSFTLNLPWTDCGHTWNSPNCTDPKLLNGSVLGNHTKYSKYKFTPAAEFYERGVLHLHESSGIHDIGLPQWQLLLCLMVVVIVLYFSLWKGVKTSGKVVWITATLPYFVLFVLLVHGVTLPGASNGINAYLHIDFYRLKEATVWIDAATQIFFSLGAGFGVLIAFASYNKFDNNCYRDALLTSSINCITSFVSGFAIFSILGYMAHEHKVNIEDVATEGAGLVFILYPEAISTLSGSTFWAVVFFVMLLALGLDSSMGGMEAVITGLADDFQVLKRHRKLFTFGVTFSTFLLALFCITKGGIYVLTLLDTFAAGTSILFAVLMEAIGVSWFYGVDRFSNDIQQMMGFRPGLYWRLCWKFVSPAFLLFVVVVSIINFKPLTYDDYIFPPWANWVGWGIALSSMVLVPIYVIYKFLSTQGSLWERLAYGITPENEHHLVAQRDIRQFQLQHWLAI
row,SMILES,IC50
1,"[O-][S+](Cc1cncs1)C(c1ccccc1)c1cccc(Br)c1 (mixture of isomers) [(R), 5-((((3-bromophenyl)(phenyl)methyl)sulfinyl)methyl)thiazole]",17.2 ± 4.5 µM
2,"[O-][S@@+](Cc1cncs1)[C@@H](c1ccccc1)c1cccc(Br)c1 (single isomer, unassigned) [Compound 1_1]",11.7 ± 7.3 µM
3,[O-][S@+](Cc1cncs1)[C@@H](c1ccccc1)c1cccc(Br)c1 [Compound 1_2],148 ± 68.4 µM
4,[O-][S@+](Cc1cncs1)[C@H](c1ccccc1)c1cccc(Br)c1 [Compound 2_2],13.9 ± 15.9 µM
